pIC50: −log10 of the molar value. The source made the active and inactive calls. The calls are words filed in the database; no cut-off is given here.
What was measured:
Bel-7402 = experiment: Cytotoxicity against human Bel7402 cells by MTT assay; format: functional, cell-based
KB = experiment: Cytotoxicity against human KB cells by MTT assay; format: functional, cell-based
A549 = experiment: Cytotoxicity against human A549 cells by MTT assay; format: functional, cell-based
[1] = target: DNA topoisomerase 2-alpha (Homo sapiens) (UniProt P11388); experiment: Inhibition of human topoisomerase 2-mediated relaxation of supercoiled plasmid DNA assessed as formation of linear DNA at 100 uM by agarose gel electrophoresis
Chain of DNA topoisomerase 2-alpha (Homo sapiens) (P11388 whole entry): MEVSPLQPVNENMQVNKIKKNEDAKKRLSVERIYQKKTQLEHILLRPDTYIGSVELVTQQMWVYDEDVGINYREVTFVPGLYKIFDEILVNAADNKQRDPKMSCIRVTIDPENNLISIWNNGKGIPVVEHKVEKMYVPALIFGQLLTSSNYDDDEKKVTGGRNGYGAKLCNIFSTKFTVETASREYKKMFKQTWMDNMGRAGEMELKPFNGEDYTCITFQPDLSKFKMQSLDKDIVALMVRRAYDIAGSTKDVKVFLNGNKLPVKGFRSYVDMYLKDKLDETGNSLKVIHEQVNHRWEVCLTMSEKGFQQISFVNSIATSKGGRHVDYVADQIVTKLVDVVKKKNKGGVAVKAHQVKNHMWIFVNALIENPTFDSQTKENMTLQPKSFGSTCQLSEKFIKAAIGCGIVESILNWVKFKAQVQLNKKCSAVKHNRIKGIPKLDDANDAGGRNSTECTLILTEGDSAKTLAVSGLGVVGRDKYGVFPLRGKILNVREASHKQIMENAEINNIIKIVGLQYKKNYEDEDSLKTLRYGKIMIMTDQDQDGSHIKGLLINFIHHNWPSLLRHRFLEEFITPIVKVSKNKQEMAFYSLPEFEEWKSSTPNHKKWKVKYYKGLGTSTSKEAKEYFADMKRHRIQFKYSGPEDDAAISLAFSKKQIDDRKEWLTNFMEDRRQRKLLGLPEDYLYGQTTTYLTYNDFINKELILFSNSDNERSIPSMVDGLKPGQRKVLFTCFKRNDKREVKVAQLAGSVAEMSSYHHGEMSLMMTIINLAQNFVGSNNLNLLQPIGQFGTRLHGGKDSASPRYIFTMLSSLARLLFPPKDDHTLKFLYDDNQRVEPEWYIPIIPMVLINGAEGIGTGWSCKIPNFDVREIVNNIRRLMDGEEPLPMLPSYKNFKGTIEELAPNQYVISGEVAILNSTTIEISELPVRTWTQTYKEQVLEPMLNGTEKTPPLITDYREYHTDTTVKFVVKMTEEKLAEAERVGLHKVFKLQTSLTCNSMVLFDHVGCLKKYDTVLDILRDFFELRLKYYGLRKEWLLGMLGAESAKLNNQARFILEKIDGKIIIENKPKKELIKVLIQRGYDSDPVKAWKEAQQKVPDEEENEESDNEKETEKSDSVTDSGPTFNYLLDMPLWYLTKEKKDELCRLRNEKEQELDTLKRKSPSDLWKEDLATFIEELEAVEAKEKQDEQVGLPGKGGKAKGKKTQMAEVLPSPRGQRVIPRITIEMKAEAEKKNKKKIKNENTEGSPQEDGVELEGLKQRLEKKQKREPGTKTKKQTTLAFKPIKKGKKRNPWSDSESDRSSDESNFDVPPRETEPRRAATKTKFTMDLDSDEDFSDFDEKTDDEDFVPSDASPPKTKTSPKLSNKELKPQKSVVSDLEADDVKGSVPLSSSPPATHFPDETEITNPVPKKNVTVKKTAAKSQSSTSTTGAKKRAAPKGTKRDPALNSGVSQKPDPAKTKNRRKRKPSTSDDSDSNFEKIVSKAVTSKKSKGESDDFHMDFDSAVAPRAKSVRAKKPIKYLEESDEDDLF

MDA-MB-231 = experiment: Cytotoxicity against human MDA-MB-231 cells by MTT assay; format: functional, cell-based
[2] = target: T1, DNA topoisomerase 1 (Homo sapiens) (UniProt P11387); experiment: Inhibition of human topoisomerase 1-mediated relaxation of supercoiled plasmid DNA assessed as formation of linear DNA at 100 uM by agarose gel electrophoresis
T1 sequence (whole entry): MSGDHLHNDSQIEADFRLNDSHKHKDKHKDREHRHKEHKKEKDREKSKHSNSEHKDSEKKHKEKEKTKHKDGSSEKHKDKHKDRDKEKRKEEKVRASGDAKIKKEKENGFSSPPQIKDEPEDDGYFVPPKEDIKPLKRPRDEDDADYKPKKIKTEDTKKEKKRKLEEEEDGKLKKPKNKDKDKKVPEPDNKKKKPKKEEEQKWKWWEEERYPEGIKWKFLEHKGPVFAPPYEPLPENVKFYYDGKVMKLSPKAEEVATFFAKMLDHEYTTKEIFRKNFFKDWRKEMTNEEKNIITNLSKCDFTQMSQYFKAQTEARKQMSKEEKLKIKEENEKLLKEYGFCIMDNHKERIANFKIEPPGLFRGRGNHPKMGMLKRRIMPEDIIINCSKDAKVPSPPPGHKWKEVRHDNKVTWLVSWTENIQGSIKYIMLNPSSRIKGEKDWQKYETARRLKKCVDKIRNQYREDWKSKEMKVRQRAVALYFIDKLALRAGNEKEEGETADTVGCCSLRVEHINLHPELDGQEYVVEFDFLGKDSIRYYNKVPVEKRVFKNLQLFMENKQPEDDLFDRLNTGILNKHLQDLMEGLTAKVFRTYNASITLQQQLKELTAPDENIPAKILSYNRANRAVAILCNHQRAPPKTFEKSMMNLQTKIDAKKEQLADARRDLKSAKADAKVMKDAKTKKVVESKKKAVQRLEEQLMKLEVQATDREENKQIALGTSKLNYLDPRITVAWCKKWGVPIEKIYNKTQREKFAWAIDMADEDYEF

HCT-116 = experiment: Cytotoxicity against human HCT116 cells by MTT assay; format: functional, cell-based

Compound | inhibition [1] | inhibition [2] | pIC50 (Bel-7402) | pIC50 (KB) | pIC50 (A549) | pIC50 (MDA-MB-231) | pIC50 (HCT-116)
CCn1cc(C(=O)Nc2ccccc2O)c(=O)c2cc(F)c(N3CCNC(C)C3)c(F)c21 (stereo not drawn) | – | inactive | < 4.30 | 5.30 | 4.61 | 5.13 | 5.27
CCn1cc(C(=O)Nc2nccs2)c(=O)c2cc(F)c(N3CCNC(C)C3)c(F)c21 (stereo not drawn) | – | inactive | < 4.30 | 4.36 | 4.69 | < 4.30 | 5.06
CCn1cc(C(=O)Nc2ccc(C)c([N+](=O)[O-])c2)c(=O)c2cc(F)c(N3CCNC(C)C3)c(F)c21 (stereo not drawn) | Active | inactive | 4.54 | 5.41 | 5.43 | 5.38 | 4.93
CCn1cc(C(=O)Nc2ccc(Cl)cn2)c(=O)c2cc(F)c(N3CCNC(C)C3)c(F)c21 (stereo not drawn) | Active | inactive | 5.31 | 5.80 | 5.48 | 5.32 | 5.48
CCn1cc(C(=O)Nc2cc([N+](=O)[O-])ccc2F)c(=O)c2cc(F)c(N3CCNC(C)C3)c(F)c21 (stereo not drawn) | Active | inactive | 5.54 | 5.49 | 5.77 | 5.16 | 5.59
CC[C@@]1(O)C(=O)OCc2c1cc1n(c2=O)Cc2cc3cc(O)ccc3nc2-1 [HYDROXYCAMPTOTHECIN] | – | – | – | – | 7.15 | 7.22 | 6.52
CCn1cc(C(=O)Nc2cccc([N+](=O)[O-])c2)c(=O)c2cc(F)c(N3CCNC(C)C3)c(F)c21 (stereo not drawn) | Active | inactive | 6.00 | 5.77 | 5.49 | 5.49 | 5.57
COc1cc([C@@H]2c3cc4c(cc3[C@@H](O[C@@H]3O[C@@H]5CO[C@@H](C)O[C@H]5[C@H](O)[C@H]3O)[C@H]3COC(=O)[C@H]23)OCO4)cc(OC)c1O | Active | – | – | – | – | – | –
CCn1cc(C(=O)Nc2ccccc2N)c(=O)c2cc(F)c(N3CCNC(C)C3)c(F)c21 (stereo not drawn) | – | inactive | 5.32 | 5.55 | 5.23 | 5.02 | 5.57
CCn1cc(-c2nc3ccc([N+](=O)[O-])cc3o2)c(=O)c2cc(F)c(N3CCNC(C)C3)c(F)c21 (stereo not drawn) | – | inactive | 5.80 | 6.05 | 6.05 | 5.70 | 5.96

More lines, main results first:

inhibition [1] | inhibition [2] | Compound | pIC50 (Bel-7402) | pIC50 (KB) | pIC50 (A549) | pIC50 (MDA-MB-231) | pIC50 (HCT-116)
Active | inactive | CCn1cc(C(=O)Nc2ccc(OC(F)(F)F)cc2)c(=O)c2cc(F)c(N3CCNC(C)C3)c(F)c21 (stereo not drawn) | 5.70 | 5.85 | 5.88 | 6.01 | 5.63
Active | inactive | CCn1cc(C(=O)Nc2ccc(C(C)=O)cc2)c(=O)c2cc(F)c(N3CCNC(C)C3)c(F)c21 (stereo not drawn) | < 4.30 | 4.37 | 5.40 | 5.25 | 5.34
– | inactive | CCn1cc(C(=O)Nc2ccccc2)c(=O)c2cc(F)c(N3CCNC(C)C3)c(F)c21 (stereo not drawn) | 5.22 | 5.36 | 4.41 | 5.13 | 4.90
– | inactive | CCn1cc(C(=O)NCc2ccc(OC)cc2)c(=O)c2cc(F)c(N3CCNC(C)C3)c(F)c21 (stereo not drawn) | 4.99 | 5.79 | 5.15 | 4.60 | 5.85
– | inactive | CCn1cc(C(=O)Nc2ccc(OC)cc2)c(=O)c2cc(F)c(N3CCNC(C)C3)c(F)c21 (stereo not drawn) | 5.27 | 5.59 | 5.01 | 5.14 | 5.42

Source: ChEMBL document CHEMBL2380303, “Synthesis, cytotoxicity and topoisomerase II inhibitory activity of lomefloxacin derivatives” (Bioorg Med Chem Lett, 2013)
